Data as given in patent publication US20150024934A1, “CONTROLLING CHARCOAL ROT WITH FLUTRIAFOL” (CHEMINOVA A/S, priority 2013, published 2015).

Assays:
[1] = test system: Macrophomina phaseolina; assay: Mycelial colony growth on flutriafol-amended PDA; assay type: cell-based; settings: 1x; for Dia (mm) 1 day: untreated 28.2; for Dia (mm) 3 days / Dia (mm) 5 days / Dia (mm) 7 days: untreated 40
Method: Inhibition of Macrophomina phaseolina (charcoal rot) was tested in the following example: The flutriafol composition used in the example was TOPGUARD (125 g/L flutriafol SC), a commercially available product.
Each pathogen was grown out on fresh potato dextrose agar (commercial PDA), assessed and used to seed 2× autoclaved rice for inoculums development. At 7-10 days, two infested rice grains with the pathogen was placed at equal distances on flutriafol-amended PDA and incubated at 27-29° C. Mycelial colony diameter from each rice grain was measured at 1, 3, 5 and 7 days from grain placement. The included tables and data sets illustrate the differences in mycelia growth in response to various concentrations of the fungicide.

[2] = test system: charcoal rot; assay: Strawberry field trial for control of charcoal rot (infected plants, yield); assay type: in vivo; settings: applied either surface incorporated or via buried drip

## OC(Cn1cncn1)(c1ccc(F)cc1)c1ccccc1F (racemic) [flutriafol, (RS)-2,4′-difluoro-α-(1H-1,2,4-triazol-1-ylmethyl)benzhydryl alcohol]
[1]; 0.01 ppm
  Dia (mm) 1 day: 25.5 mm
  Dia (mm) 3 days: 40 mm
  Dia (mm) 5 days: 40 mm
  Dia (mm) 7 days: 40 mm
[1]; 0.1 ppm
  Dia (mm) 1 day: 22.3 mm
  Dia (mm) 3 days: 40 mm
  Dia (mm) 5 days: 40 mm
  Dia (mm) 7 days: 40 mm
[1]; 1 ppm
  Dia (mm) 1 day: 13.9 mm
  Dia (mm) 3 days: 38.6 mm
  Dia (mm) 5 days: 40 mm
  Dia (mm) 7 days: 40 mm
[1]; 10 ppm
  Dia (mm) 1 day: 0 mm
  Dia (mm) 3 days: 3.5 mm
  Dia (mm) 5 days: 3.5 mm
  Dia (mm) 7 days: 5.1 mm
[1]; 100 ppm
  Dia (mm) 1 day: 0 mm
  Dia (mm) 3 days: 0 mm
  Dia (mm) 5 days: 0 mm
  Dia (mm) 7 days: 0 mm
[1]; 250 ppm, mycelial colony diameter, TOPGUARD 125 g/L SC in PDA
  Dia (mm) 1 day: 0 mm
[1]; 250 ppm
  Dia (mm) 3 days: 0 mm
  Dia (mm) 5 days: 0 mm
  Dia (mm) 7 days: 0 mm
[2]
  effect on charcoal rot: significantly reduced charcoal rot
